Some test systems named below: ACHN; CAKI-1; CCRF-CEM; HCT-116; HOP-62; HT-29; K562; LOX IMVI; MDA-N; MOLT-4; NCI-H23; NCI/ADR-RES; OVCAR-3; OVCAR-4; OVCAR-8; RPMI-8226; SF-268; SF-295; SK-MEL-2; T47D.
What all share (assay): DTP human tumour cell line panel, 48 h

Structures are written as SMILES.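 All cell lines were grown in 96-well plates and treated with compound for 48 hours. Here, GI50 denotes the concentration required for 50% inhibition of growth.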 Activity calls are given as the source filed them. Cut-off read from the data, not from the text of the source: active = GI50 up to about 1.1 µM and inactive = higher.

What is called GI50 is the concentration that inhibits growth by half.

For the compound `O=C1c2ccccc2C(=O)c2c(NC3CCCCC3)ccc(Nc3ccc(S(=O)(=O)O)cc3)c21`, the GI50 was 38.8 µM (inactive) with ACHN; > 100 µM (inactive) in the test with CAKI-1; 26.3 µM (inactive) with CCRF-CEM; 29.7 µM (inactive) in the test with HCT-116; > 100 µM (inactive) with HOP-62; 39.4 µM (inactive) in the test on HT-29. Also, the GI50 was 52 µM (inactive) in the test on K562; 32.7 µM (inactive) in the test on LOX IMVI; 46 µM (inactive) in the test with MDA-N; 34.9 µM (inactive) in the test on MOLT-4; 77.1 µM (inactive) with NCI-H23; > 100 µM (inactive) with NCI/ADR-RES. For the same compound, the GI50 in the test on OVCAR-3 is 28.2 µM (inactive); with OVCAR-4 it was 33.9 µM (inactive); with OVCAR-8, 35.3 µM (inactive); with RPMI-8226, 45.2 µM (inactive); in the test with SF-268, 34.8 µM (inactive); in the test on SF-295, > 100 µM (inactive). Further, the GI50 in the test with SK-MEL-2 is 21.8 µM (inactive); with T47D it was 29 µM (inactive).

Take `CCOP(=O)(OCC)/C(C#N)=C\c1cccc2ccccc12`: the GI50 with ACHN was > 75.9 µM (inactive); in the test on CAKI-1, 74.3 µM (inactive); in the test with CCRF-CEM it was 30.1 µM (inactive); with HCT-116, 46 µM (inactive); in the test on HOP-62 it was > 56.6 µM (inactive); with HT-29, > 66.1 µM (inactive). Besides, the GI50 was 31 µM (inactive) in the test on K562; 20.9 µM (inactive) in the test with LOX IMVI; 40.6 µM (inactive) with MDA-N; 35.4 µM (inactive) in the test on MOLT-4; 78.3 µM (inactive) in the test with NCI-H23; 52.7 µM (inactive) in the test on NCI/ADR-RES. Besides, the GI50 is > 55.7 µM (inactive) in the test with OVCAR-3; > 75.3 µM (inactive) in the test with OVCAR-4; > 45.7 µM (inactive) in the test with OVCAR-8; 23 µM (inactive) with RPMI-8226; 21.4 µM (inactive) in the test with SF-268; 60.1 µM (inactive) in the test on SF-295. Besides, the GI50 was > 62.1 µM (inactive) in the test with SK-MEL-2 and 26.8 µM (inactive) with T47D.

Consider `Cc1n2nc(N)sc2n[n+]1Cc1ccccc1`, for which the GI50 with ACHN is > 100 µM (inactive); in the test with CAKI-1 it was > 100 µM (inactive); in the test on CCRF-CEM, > 100 µM (inactive); in the test on HCT-116, > 100 µM (inactive); with HOP-62 it was 72.6 µM (inactive); with HT-29, > 100 µM (inactive). The GI50 in the test with K562 was 47.5 µM (inactive); in the test on LOX IMVI, > 100 µM (inactive); in the test with MDA-N it was > 100 µM (inactive); with MOLT-4, > 100 µM (inactive); with NCI-H23, > 100 µM (inactive); with NCI/ADR-RES it was > 100 µM (inactive). Further, the GI50 with OVCAR-3 was 89.9 µM (inactive); in the test with OVCAR-4 it was > 100 µM (inactive); in the test with OVCAR-8, > 100 µM (inactive); in the test with RPMI-8226, > 100 µM (inactive); in the test on SF-268, 48.8 µM (inactive); with SF-295, > 100 µM (inactive). In addition, the GI50 in the test with SK-MEL-2 is > 100 µM (inactive); with T47D, 38.4 µM (inactive).

As to `O=C1/C(=C/c2ccc([N+](=O)[O-])cc2)Sc2scc(-c3cccc([N+](=O)[O-])c3)[n+]21`, the GI50 with ACHN is 3.97 µM (inactive); in the test on CAKI-1, 2.8 µM (inactive); in the test on CCRF-CEM, 0.364 µM (active); in the test with HCT-116, 4.6 µM (inactive); with HOP-62 it was 15.5 µM (inactive); in the test on HT-29, 2.31 µM (inactive). Also, the GI50 was 2.77 µM (inactive) with K562; 2.41 µM (inactive) with LOX IMVI; 4.35 µM (inactive) with MDA-N; 1.99 µM (inactive) in the test on MOLT-4; 7.93 µM (inactive) in the test on NCI-H23; 5.89 µM (inactive) with NCI/ADR-RES. The GI50 with OVCAR-3 is 4.24 µM (inactive); with OVCAR-4 it was 9.53 µM (inactive); with OVCAR-8, 6.11 µM (inactive); in the test with RPMI-8226, 3.01 µM (inactive); with SF-268, 2.15 µM (inactive); in the test on SF-295, 14.2 µM (inactive). For the same compound, the GI50 with SK-MEL-2 is 13.9 µM (inactive); with T47D, 3.35 µM (inactive).

Regarding `Cc1ccc2ccc(=O)oc2c1`, the GI50 in the test on ACHN, with CAKI-1, in the test with CCRF-CEM, with HCT-116, in the test with HOP-62 and in the test with HT-29 was > 100 µM (inactive) in each case. In addition, the GI50 in the test on K562, in the test with LOX IMVI, in the test with MDA-N, in the test with MOLT-4, in the test with NCI-H23 and with NCI/ADR-RES was > 100 µM (inactive) in each case. The GI50 with OVCAR-3, in the test with OVCAR-4, with OVCAR-8, with RPMI-8226, in the test on SF-268 and with SF-295 was > 100 µM (inactive) each time. Moreover, the GI50 was > 100 µM (inactive) in the test on SK-MEL-2 and 94.6 µM (inactive) in the test with T47D.

On to `O=C(/C=C/c1ccc(OCCSCCCCCCCCCCSCCOc2ccc(/C=C/C(=O)c3ccc(Cl)cc3)cc2)cc1)c1ccc(Cl)cc1`, for which the GI50 was > 88.1 µM (inactive) in the test with ACHN; > 83.2 µM (inactive) with CAKI-1; > 100 µM (inactive) in the test with CCRF-CEM; > 100 µM (inactive) in the test on HCT-116; 51.2 µM (inactive) with HOP-62; > 100 µM (inactive) in the test on HT-29. For the same compound, the GI50 in the test with K562 was > 100 µM (inactive); in the test on LOX IMVI, > 100 µM (inactive); in the test on MDA-N, > 100 µM (inactive); in the test with MOLT-4, > 100 µM (inactive); with NCI-H23, > 94.6 µM (inactive); with NCI/ADR-RES, > 100 µM (inactive). The GI50 with OVCAR-3 is > 100 µM (inactive); in the test on OVCAR-4, > 100 µM (inactive); in the test with OVCAR-8 it was > 100 µM (inactive); with RPMI-8226, > 100 µM (inactive); with SF-268, 76 µM (inactive); with SF-295, 65.8 µM (inactive). Further, the GI50 in the test on SK-MEL-2 was 61.8 µM (inactive); in the test on T47D, > 100 µM (inactive).

In the case of `CC12ON(P(=O)(c3ccccc3)c3ccccc3)C(C)(c3ccccc31)c1ccccc12`, the GI50 in the test with ACHN is > 100 µM (inactive); with CAKI-1 it was > 100 µM (inactive); in the test on CCRF-CEM it was 46.2 µM (inactive); with HCT-116, > 100 µM (inactive); in the test on HOP-62 it was > 100 µM (inactive); in the test on HT-29, > 100 µM (inactive). The GI50 is 88.3 µM (inactive) with K562; > 100 µM (inactive) in the test with LOX IMVI; > 100 µM (inactive) with MDA-N; 32.7 µM (inactive) in the test with MOLT-4; > 100 µM (inactive) in the test with NCI-H23; > 100 µM (inactive) in the test with NCI/ADR-RES. Moreover, the GI50 in the test on OVCAR-3 is > 100 µM (inactive); in the test on OVCAR-4, 21.5 µM (inactive); in the test on OVCAR-8 it was > 100 µM (inactive); with RPMI-8226, 58.9 µM (inactive); in the test with SF-268, > 100 µM (inactive); with SF-295, > 100 µM (inactive). Also, the GI50 is > 100 µM (inactive) in the test with SK-MEL-2 and 51.3 µM (inactive) in the test on T47D.

Take `COc1ccc(/N=N/C(=O)NC(CC(C)C)C(N)=O)cc1` (stereo not given): the GI50 in the test with ACHN is > 31.1 µM (inactive); with CAKI-1, > 31.6 µM (inactive); in the test on CCRF-CEM, > 27.7 µM (inactive); in the test on HCT-116 it was > 31.6 µM (inactive); with HOP-62, > 100 µM (inactive); in the test on HT-29, > 100 µM (inactive). Moreover, the GI50 is 1.43 µM (inactive) in the test with K562; 9.48 µM (inactive) in the test with LOX IMVI; 30.2 µM (inactive) in the test on MDA-N; 7.74 µM (inactive) in the test with MOLT-4; > 100 µM (inactive) in the test on NCI-H23; 55.5 µM (inactive) in the test with NCI/ADR-RES. Further, the GI50 was > 50 µM (inactive) in the test with OVCAR-3; > 31.6 µM (inactive) with OVCAR-4; 36.9 µM (inactive) in the test on OVCAR-8; 14.8 µM (inactive) in the test with RPMI-8226; > 100 µM (inactive) in the test with SF-268; 5.58 µM (inactive) with SF-295. Also, the GI50 is > 100 µM (inactive) in the test on SK-MEL-2 and 12.2 µM (inactive) in the test with T47D.

For the compound `C/C(=N\NC(=S)Nc1ccccc1)c1nc2cccnc2[nH]1`, the GI50 was 1.44 µM (inactive) with ACHN; 4.63 µM (inactive) in the test with CAKI-1; 0.389 µM (active) in the test on CCRF-CEM; 1.63 µM (inactive) with HCT-116; 8.47 µM (inactive) in the test on HOP-62; 0.826 µM (active) with HT-29. In addition, the GI50 in the test on K562 is 3.35 µM (inactive); in the test on LOX IMVI, 2.31 µM (inactive); in the test on MDA-N it was 5.65 µM (inactive); in the test on MOLT-4, 0.706 µM (active); with NCI-H23, 9.53 µM (inactive); in the test on NCI/ADR-RES, 3.3 µM (inactive). In addition, the GI50 with OVCAR-3 was 0.456 µM (active); in the test on OVCAR-4 it was 0.927 µM (active); with OVCAR-8 it was 2.76 µM (inactive); with RPMI-8226, 3.75 µM (inactive); with SF-268 it was 0.583 µM (active); in the test with SF-295, 3.46 µM (inactive). For the same compound, the GI50 in the test on SK-MEL-2 was 16.9 µM (inactive); with T47D it was 0.193 µM (active).

Take `COc1cc(S(=O)(=O)Nc2ccc(-c3csc(N4C(=O)C(Cl)C4c4ccccc4O)n3)cc2)ccc1Cl` (stereo not given): the GI50 with ACHN is 76.7 µM (inactive); in the test with CAKI-1, > 100 µM (inactive); in the test on CCRF-CEM it was 2.73 µM (inactive); with HCT-116 it was 30.3 µM (inactive); with HOP-62, > 100 µM (inactive); in the test with HT-29, 36.8 µM (inactive). In addition, the GI50 is 31 µM (inactive) with K562; 1.49 µM (inactive) in the test with LOX IMVI; 27.5 µM (inactive) with MDA-N; 9.59 µM (inactive) in the test on MOLT-4; 23.6 µM (inactive) with NCI-H23; > 100 µM (inactive) in the test on NCI/ADR-RES. The GI50 with OVCAR-3 was > 100 µM (inactive); in the test on OVCAR-4, 26.4 µM (inactive); with OVCAR-8 it was 53.6 µM (inactive); in the test with RPMI-8226, 23.2 µM (inactive); with SF-268, 25.8 µM (inactive); with SF-295, > 100 µM (inactive). Also, the GI50 with SK-MEL-2 was 37.8 µM (inactive); with T47D, 13.1 µM (inactive).

The values above are taken from ChEMBL document CHEMBL1201862, “PubChem BioAssay data set” (2004).
